# Measurements published in patent EP0590024B1, “TOPICAL COMPOSITION ENHANCING HEALING OF HERPES LESIONS” (VIRO-TEX CORPORATION, priority 1991, dated 1993).
# Counter-ions that a name gives are not always drawn.
# What was measured:
# [1] = tested on: MS strain of HSV-2; experiment: Primary genital HSV-2 infection of guinea pigs, topical treatment; type: in vivo; details: ACV as 5%
# Protocol: The antiviral activity of several compounds in a primary genital HSV-2 infection of guinea pigs was tested. The experiments were placebo-controlled and uninfected animals were treated with each of the preparations to assess skin irritation. Groups treated with 5% Acyclovir were included as positive controls.
# Virus and Viral Inoculation. The MS strain of HSV-2 was utilized to infect animals. Female Hartley strain guinea pigs, Charles River Breeding Laboratories, Kingston, NY, weighing 250 to 300 g were inoculated intravaginally with 1.4 x 10^5 plaque forming units of HSV-2 one hour after being swabbed for the removal of vaginal secretions.
# Treatment of Guinea Pigs. Groups of ten infected guinea pigs were treated topically, 0.1 ml intravaginally and 0.1 ml on external genital skin, three times daily, approximately every eight hours, for seven days, beginning either 6 hr or 48 hr after HSV inoculation. Groups of three uninfected animals were used to assess toxicity of each preparation.
# Simple Collection and Virus Assays. To determine the effect of treatment on vaginal virus replication, swabs of vaginal secretions were obtained on days 1, 3, 5, 7 and 10 after HSV-2 inoculation, placed in a tube containing 2.0 ml of media, vortexed and frozen at -70°C until titrated for HSV-2. When all samples were collected, they were thawed, diluted serially and HSV-2 titers determined using a microtiter CPE assay in rabbit kidney cells. Mean peak virus titers and areas under the virus titer-day curves were calculated and analyzed.
# Scoring of External Genital Lesions. To determine the effect of therapy on the development and spread of external genital lesions, lesion severity was scored on a 0-5+ scale through the primary infection (21 days). Mean peak lesion scores and the area under the lesion score-day curves were calculated and analyzed.
# Evaluation of Efficacy. The number of animals infected over the number inoculated, lesion score-day areas and virus titer-day areas under the curve, peak lesion scores and peak virus titers between untreated and placebo-treated or placebo-treated and drug-treated animals were compared using the Mann-Whitney U rank sum test. A p-value of 0.05 or less was considered significant.
# The base formulation is as defined for the preferred embodiment of the composition for enhancing […] of viral lesions, but without SLS or anesthetic. Acyclovir (ACV) was used as a positive control (i.e., having antiviral activity). Placebo (PBS) treated animals were compared with an untreated control animal. 2A was compared with the untreated animals and placebo-treated animals. ACV groups were compared to the placebo-treated group. All others were compared to 2A.
# [2] = tested on: MRC-5 cells; details: for concentrations exhibiting significant cytotoxicity: 1440 min
# [3] = tested on: HSV-2; experiment: Antiviral studies: inhibition of HSV-2 replication in MRC-5 cells (virus yield); type: cell-based, herpes simplex virus type-2
# Protocol: (§1) A clinical isolate from a genital lesion of Herpes simplex virus, type (HSV-2), was used.
# (§2) Stocks of viruses were grown by infecting MRC-5 cells at multiplicity of 0.01 plaque forming units (PFU) per cell and harvested in maintenance medium. Virus was harvested by three cycles of freezing at -70°C and thawing, followed by centrifugation at 1000 x g at 4°C for 15 minutes to remove cell debris. Resulting virus stocks were aliquoted and frozen at -70°C.
# Antiviral activity, i.e., the ability of the compound to inhibit infection or replication of virus in cells, was measured by infecting confluent monolayers of MRC-5 cells in 12 x 100 mm culture tubes at a multiplicity of infection (MOI) of 3.0 plaque forming units (PFU) per cell of HSV-2 by removing the maintenance medium, washing the monolayers three times with phosphate buffered saline (PBS), and adding 0.1 ml of […] suspended in PBS. The multiplicity of infection was calculated by counting the number of viable cells in a duplicate tube and diluting the stock virus to produce a viral inoculum in a volume of 0.1 ml which contained three times the PFUs as the number of cells counted. After a 60 minute absorption period, the inoculum was removed and 4 mls of test compound at appropriate concentrations in maintenance medium or maintenance medium (control) was added. The tubes were incubated at 37°C for an additional 23 hours. At 24 hours post-infection, the medium was removed and the monolayers were washed twice with PBS and frozen and thawed 3 times in 1 ml of maintenance medium. Virus yields were determined by serial end-point titrations in 96-well tissue culture plates containing MRC-5 cells. All experiments were tested in triplicate. 50% end-points were calculated and titers were expressed in TCID 50 units. Antiviral effect was determined by subtracting the difference between the TCID 50s of the test compound and from the TCID 50s of HSV-2 virus stock titrated in the same experiment and calculated in percentages.
# [4] = tested on: HSV-2; experiment: Inactivation studies: direct inactivation of HSV-2; parameters: species or system herpes simplex virus type-2; details: for concentrations tested at which the compound does not directly inactivate HSV-2: 30 minutes at room temperature, up to highest concentration tested
# Protocol: as §1, §2
# To determine if a test compound directly inactivates HSV-2, 0.5 ml of serial dilutions of the compound to be tested was mixed with 0.5 ml of stock HSV-2 (titer = […]) and incubated at room temperature for 30 minutes. After 30 minutes, the compound-virus mixture was diluted 10,000 fold in maintenance medium and virus recovery was determined by inoculating MRC-5 cells. The cells were graded for cytopathic effect after 24 hr, 48 hr, and 72 hr.
# [5] = tested on: Vero cells; experiment: Cytotoxicity assay in Vero cells; type: cell-based, green monkey
# Protocol: A continuous line of human embryo lung cells (MRC-5) were grown in Eagle's minimal essential medium (MEM) in Earle's salts supplemented with 2 mM L-glutamine, […] gentamicin, 0.25 mg/ml amphotericin B (Fungisone) ad 10% heat-inactivated fetal calf serum (growth medium). Cells were grown at 37°C in a humidified 5% CO2 atmosphere or in closed flasks. Maintenance medium was the same basic composition, except the concentration of fetal calf serum was 2%. Vero cells (continuous line of green monkey kidney cells) were grown in the same manner as MRC-5 cells.
# Cytotoxicity assays were performed in MRC-5 cells and in Vero cells. The test compound was dissolved in maintenance medium at selected concentrations and inoculated onto MRC-5 or Vero cells in 96 well tissue culture plates. Each concentration was inoculated in triplicate. The plates were incubated at 37°C in 5% CO2 and graded for cytotoxicity at 24,48 and 72 hours after inoculation. The highest concentration of compound showing 50% cytotoxicity after 72 hours was designated the end point.
structure (smiles),measurement,setting,value
"Nc1nc2c(ncn2COCCO)c(=O)[nH]1 [ACV, Acyclovir]",virus titer-day area under the curve (AUC),"[1]; therapy given 6 hr after viral inoculation, vs placebo, p 0.05",significantly reduced
same,mean peak virus titer,"[1]; therapy given 6 hr after viral inoculation, vs placebo, p <0.01",significantly reduced
same,lesion development,"[1]; therapy initiated 6 hr following HSV-2 inoculation, P <0.05 or less",significantly decreased
same,mean peak lesion score,"[1]; therapy initiated 6 hr following inoculation, P <0.001",reduced
O=C(O)c1cccnc1 [Niacin],concentrations non-toxic in MRC-5 cells,[2]; human,≤ 0.25%
same,inhibition of the replication of HSV-2 / antiviral activity,[3]; concentration not given,does not inhibit
same,concentrations tested at which the compound does not directly inactivate HSV-2,[4],up to 0.25%
"CCN(CC)CCOC(=O)c1ccc(N)cc1 [Procaine HCl, Procaine hydrochloride]",concentrations exhibiting significant cytotoxicity,[2]; human,above 0.25%
same,concentrations unable to inhibit the replication of HSV-2,"[3]; MOI 3.0, 24 hours post-infection, up to stated concentration",up to 2%
same,inhibition of the replication of HSV-2 / antiviral activity,[3]; concentration not given,does not
same,concentrations showing significant toxicity,[5]; monkey,above 2.0%
same,concentrations tested at which the compound does not directly inactivate HSV-2,[4],up to 4%
"CCCCCCCCCCCCOS(=O)(=O)O [SLS, sodium lauryl (or dodecyl) sulfate]",concentrations highly toxic to MRC-5 cells,"[2]; MRC-5 cells, time not stated",above 0.0025%
same,inhibition of viral replication,[3]; 0.0013%,does not inhibit
same,inhibition of viral replication,[3]; 0.0025%,does not inhibit
same,direct inactivation of HSV-2,[4]; concentration of 0.00032%,No inactivation
CCCCNc1ccc(C(=O)OCCN(C)C)cc1 [Tetracaine HCl],concentrations exhibiting significant cytotoxicity,[2]; human,above 0.03%
same,inhibition of the replication of HSV-2,[3]; 0.25%,partially inhibited
same,inhibition of the replication of HSV-2 / antiviral activity,"[3]; 0.5%, HCl",partially inhibited
same,inhibition of the replication of HSV-2 / antiviral activity,"[3]; 0.5%, listed as tetracaine HCl, HCl",some antiviral activity
same,significant toxicity in Vero cells,"[5]; Vero cells, result in words",not in Vero cells
same,concentrations tested at which the compound does not directly inactivate HSV-2,[4],up to 2%
